How the values were obtained:
[1] = system: NCI-H358 human non-small cell lung cancer; assay: NCI-H358 CCK-8 proliferation assay; format: cell-based; details: NCI-H358 cells, 72 hr
Experimental: The following cancer cell lines were employed: BT-474 human breast carcinoma (ATCC, #HTB-20); MIA PaCa-2 human pancreatic carcinoma [2 copies KRAS(G12C)](ATCC, #CRL-1420); NCI-H23 human non-small cell lung cancer [1 copy KRAS(G12C)](ATCC, #CRL-5800); NCI-H358 human non-small cell lung cancer [1 copy KRAS(G12C)](ATCC, #CRL-5807); LU65A human lung carcinoma (Pharmaron, Beijing, China). Cell lines were cultured essentially according to ATCC and Pharmaron recommendations.
Cancer Cell Line Proliferation (CCK-8) Assays
3-fold serial dilutions of each test compound were prepared ranging from 20 μM to 1.02 nM.
% Inhibition=100−(D−B)/(S−B)*100%. • S: Absorbance of cells treated with DMSO • D: Absorbance of compound-treated cells • B: Absorbance of medium with DMSO without cells

HSP90a protein = target: T1, HSP90a protein (Homo sapiens, UniProt P07900); assay: HSP90α-binding fluorescent polarization (FP) assay, BODIPY-labeled RNK04010 probe; details: FP competition with RNK04010 (BODIPY-labeled), 5 nM, 300 min at 25° C.
T1 construct: purchased BPS Bioscience 50298
Method in brief: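 Binding was scored by fluorescence polarization after adding N-terminal HSP90a to wells holding probe and compound, with compound tested from 20 μM to 5.2 nM. Probe-dependent times at 25° C were 120 min for FITC-geldanamycin and 300 min for RNK04010-BODIPY, both at 5 nM final.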

| EC50 [1] | IC50 (HSP90a protein) | Compound |
| --- | --- | --- |
| > 1000 nM | > 1000 nM | C=CC(=O)N1CCN(c2nc(NCCC(=O)NCc3ccc(-n4c(O)nnc4-c4cc(CC)c(O)cc4O)cc3F)nc3c2CCN(c2cccc4cccc(Cl)c24)C3)C[C@H]1CC#N [Compound 83, (R)-3-((4-(4-acryloyl-3-(cyanomethyl)piperazin-1-yl)-7-(8-chloronaphthalen-1-yl)-5,6,7,8-tetrahydropyrido[3,4-d]pyrimidin-2-yl)amino)-N-(4-(3-(5-ethyl-2,4-dihydroxyphenyl)-5-hydroxy-4H-1,2,4-triazol-4-yl)-2-fluorobenzyl)propanamide, trifluoroacetic acid] |
| 100 to 1000 nM | 100 to 1000 nM | CCc1cc(-c2nnc(C(=O)NCC(F)(F)F)n2-c2ccc(CN(C)Cc3ccc(CC4CCN(C(=O)CCNc5nc6c(c(N7CCN(C(C)=O)CC7)n5)CCN(c5cc(O)cc7ccccc57)C6)CC4)cc3)cc2)c(O)cc1O [Compound 113, 4-(4-(((4-((1-(3-((4-(4-acetylpiperazin-1-yl)-7-(3-hydroxynaphthalen-1-yl)-5,6,7,8-tetrahydropyrido[3,4-d]pyrimidin-2-yl)amino)propanoyl)piperidin-4-yl)methyl)benzyl)(methyl)amino)methyl)phenyl)-5-(5-ethyl-2,4-dihydroxyphenyl)-N-(2,2,2-trifluoroethyl)-4H-1,2,4-triazole-3-carboxamide, trifluoroacetic acid] |
| > 1000 nM | 100 to 1000 nM | C=CC(=O)N1CCN(c2nc(NCCC(=O)N3CCN(Cc4ccc5c(c4)CN(C(=O)c4cc(C(C)C)c(O)cc4O)C5)CC3)nc3c2CCN(c2cc(O)cc4ccccc24)C3)CC1 [Compound 58, 1-(4-(2-((3-(4-((2-(2,4-dihydroxy-5-isopropylbenzoyl)isoindolin-5-yl)methyl)piperazin-1-yl)-3-oxopropyl)amino)-7-(3-hydroxynaphthalen-1-yl)-5,6,7,8-tetrahydropyrido[3,4-d]pyrimidin-4-yl)piperazin-1-yl)prop-2-en-1-one] |
| > 1000 nM | 100 to 1000 nM | CCC(=O)N1CCN(c2nc(NCCC(=O)NCc3ccc(-n4c(O)nnc4-c4cc(C(C)C)c(O)cc4O)cc3F)nc3c2CCN(c2cc(O)cc4ccccc24)C3)CC1 [Compound 33, N-(4-(3-(2,4-dihydroxy-5-isopropylphenyl)-5-hydroxy-4H-1,2,4-triazol-4-yl)-2-fluorobenzyl)-3-((7-(3-hydroxynaphthalen-1-yl)-4-(4-propionylpiperazin-1-yl)-5,6,7,8-tetrahydropyrido[3,4-d]pyrimidin-2-yl)amino)propanamide, trifluoroacetic acid] |
| > 1000 nM | > 1000 nM | CCc1cc(-c2nnc(O)n2-c2ccc(CNC(=O)CCNc3nc4c(c(N5CCN(C(C)=O)CC5)n3)CCN(c3cc(O)cc5ccccc35)C4)c(F)c2)c(O)cc1O [Compound 43, 3-((4-(4-acetylpiperazin-1-yl)-7-(3-hydroxynaphthalen-1-yl)-5,6,7,8-tetrahydropyrido[3,4-d]pyrimidin-2-yl)amino)-N-(4-(3-(5-ethyl-2,4-dihydroxyphenyl)-5-hydroxy-4H-1,2,4-triazol-4-yl)-2-fluorobenzyl)propanamide] |
| > 1000 nM | 100 to 1000 nM | CCC(=O)N1CCN(c2nc(NCCC(=O)N3CCC(CN4CCN(Cc5ccc(-n6c(O)nnc6-c6ccc(O)cc6O)cc5)CC4)CC3)nc3c2CCN(c2cc(O)cc4ccccc24)C3)CC1 [Compound 65, 1-(4-((4-(4-(3-(2,4-dihydroxyphenyl)-5-hydroxy-4H-1,2,4-triazol-4-yl)benzyl)piperazin-1-yl)methyl)piperidin-1-yl)-3-((7-(3-hydroxynaphthalen-1-yl)-4-(4-propionylpiperazin-1-yl)-5,6,7,8-tetrahydropyrido[3,4-d]pyrimidin-2-yl)amino)propan-1-one, trifluoroacetic acid] |
| > 1000 nM | > 1000 nM | CC(=O)N1CCN(c2nc(NCCC(=O)NCc3ccc(-n4c(O)nnc4-c4cc(C)c(O)cc4O)cc3)nc3c2CCN(c2cc(O)cc4ccccc24)C3)CC1 [Compound 44, 3-((4-(4-acetylpiperazin-1-yl)-7-(3-hydroxynaphthalen-1-yl)-5,6,7,8-tetrahydropyrido[3,4-d]pyrimidin-2-yl)amino)-N-(4-(3-(2,4-dihydroxy-5-methylphenyl)-5-hydroxy-4H-1,2,4-triazol-4-yl)benzyl)propanamide, trifluoroacetic acid] |
| > 1000 nM | > 1000 nM | C=CC(=O)N1CCN(c2nc(NCCC(=O)NCCOCCOc3ccc(-n4c(O)nnc4-c4cc(CC)c(O)cc4O)cc3)nc3c2CCN(c2cc(O)cc4ccccc24)C3)CC1 [Compound 6, 3-((4-(4-acryloylpiperazin-1-yl)-7-(3-hydroxynaphthalen-1-yl)-5,6,7,8-tetrahydropyrido[3,4-d]pyrimidin-2-yl)amino)-N-(2-(2-(4-(3-(5-ethyl-2,4-dihydroxyphenyl)-5-hydroxy-4H-1,2,4-triazol-4-yl)phenoxy)ethoxy)ethyl)propanamide, trifluoroacetic acid] |
| > 1000 nM | 100 to 1000 nM | C=CC(=O)N1CCN(c2nc(NCCC(=O)NCCc3ccc(-n4c(O)nnc4-c4cc(C(C)C)c(O)cc4O)cc3)nc3c2CCN(c2cccc4ccccc24)C3)C[C@H]1CC#N [Compound 85, (R)-3-((4-(4-acryloyl-3-(cyanomethyl)piperazin-1-yl)-7-(naphthalen-1-yl)-5,6,7,8-tetrahydropyrido[3,4-d]pyrimidin-2-yl)amino)-N-(4-(3-(2,4-dihydroxy-5-isopropylphenyl)-5-hydroxy-4H-1,2,4-triazol-4-yl)phenethyl)propanamide, trifluoroacetic acid] |
| > 1000 nM | 100 to 1000 nM | C=CC(=O)N1CCN(c2nc(NCCC(=O)NCCc3ccc(-n4c(O)nnc4-c4cc(C(C)C)c(O)cc4O)cc3)nc3c2CCN(c2cc(O)cc4ccccc24)C3)CC1 [Compound 4, 3-((4-(4-acryloylpiperazin-1-yl)-7-(3-hydroxynaphthalen-1-yl)-5,6,7,8-tetrahydropyrido[3,4-d]pyrimidin-2-yl)amino)-N-(4-(3-(2,4-dihydroxy-5-isopropylphenyl)-5-hydroxy-4H-1,2,4-triazol-4-yl)phenethyl)propanamide, trifluoroacetic acid] |
| > 1000 nM | > 1000 nM | CC(=O)N1CCN(c2nc(NCCC(=O)N3CCC(Cc4ccc(CN(C)Cc5ccc(-n6c(C(=O)NCC(F)(F)F)nnc6-c6cc(C)c(O)cc6O)cc5)cc4)CC3)nc3c2CCN(c2cc(O)cc4ccccc24)C3)CC1 [Compound 114, 4-(4-(((4-((1-(3-((4-(4-acetylpiperazin-1-yl)-7-(3-hydroxynaphthalen-1-yl)-5,6,7,8-tetrahydropyrido[3,4-d]pyrimidin-2-yl)amino)propanoyl)piperidin-4-yl)methyl)benzyl)(methyl)amino)methyl)phenyl)-5-(2,4-dihydroxy-5-methylphenyl)-N-(2,2,2-trifluoroethyl)-4H-1,2,4-triazole-3-carboxamide, trifluoroacetic acid] |
| > 1000 nM | 100 to 1000 nM | C=CC(=O)N1CCN(c2nc(NCCC(=O)NCc3ccc(-n4c(O)nnc4-c4cc(CC)c(O)cc4O)cc3F)nc3c2CCN(c2cc(O)cc4ccccc24)C3)CC1 [Compound 41, 3-((4-(4-acryloylpiperazin-1-yl)-7-(3-hydroxynaphthalen-1-yl)-5,6,7,8-tetrahydropyrido[3,4-d]pyrimidin-2-yl)amino)-N-(4-(3-(5-ethyl-2,4-dihydroxyphenyl)-5-hydroxy-4H-1,2,4-triazol-4-yl)-2-fluorobenzyl)propanamide, trifluoroacetic acid] |
| > 1000 nM | > 1000 nM | C=CC(=O)N1CCN(c2nc(NCCC(=O)N3CCN(Cc4ccc5c(c4)CN(C(=O)c4ccc(O)cc4O)C5)CC3)nc3c2CCN(c2cc(O)cc4ccccc24)C3)CC1 [Compound 86, 1-(4-(2-((3-(4-((2-(2,4-dihydroxybenzoyl)isoindolin-5-yl)methyl)piperazin-1-yl)-3-oxopropyl)amino)-7-(3-hydroxynaphthalen-1-yl)-5,6,7,8-tetrahydropyrido[3,4-d]pyrimidin-4-yl)piperazin-1-yl)prop-2-en-1-one, trifluoroacetic acid] |
| > 1000 nM | 100 to 1000 nM | C=CC(=O)N1CCN(c2nc(NCCC(=O)NCc3ccc(-n4c(O)nnc4-c4cc(C(C)C)c(O)cc4O)cc3F)nc3c2CCN(c2cccc4ccccc24)C3)C[C@H]1CC#N [Compound 96, (R)-3-((4-(4-acryloyl-3-(cyanomethyl)piperazin-1-yl)-7-(naphthalen-1-yl)-5,6,7,8-tetrahydropyrido[3,4-d]pyrimidin-2-yl)amino)-N-(4-(3-(2,4-dihydroxy-5-isopropylphenyl)-5-hydroxy-4H-1,2,4-triazol-4-yl)-2-fluorobenzyl)propanamide, trifluoroacetic acid] |
| > 1000 nM | > 1000 nM | CCC(=O)N1CCN(c2nc(NCCC(=O)NCc3ccc(-n4c(O)nnc4-c4ccc(O)cc4O)cc3)nc3c2CCN(c2cc(O)cc4ccccc24)C3)CC1 [Compound 31, N-(4-(3-(2,4-dihydroxyphenyl)-5-hydroxy-4H-1,2,4-triazol-4-yl)benzyl)-3-((7-(3-hydroxynaphthalen-1-yl)-4-(4-propionylpiperazin-1-yl)-5,6,7,8-tetrahydropyrido[3,4-d]pyrimidin-2-yl)amino)propanamide, trifluoroacetic acid] |
